{"source": "ChEMBL document CHEMBL1154512", "about": "“PA-824 kills nonreplicating Mycobacterium tuberculosis by intracellular NO release” (2008)", "system": "Mycobacterium tuberculosis", "assay": "Bactericidal activity against Mycobacterium tuberculosis prcAB/tetR mutant after 3 days under anaerobic condition by serial dilution method", "format": "functional, organism-based", "note": "The source made the active and inactive calls. The rule behind the calls is not given here.", "data": [{"compound": "O=[N+]([O-])c1cn2c(n1)OC[C@@H](OCc1ccc(OC(F)(F)F)cc1)C2", "note": "[PRETOMANID]", "values": [{"measurement": "Activity", "result": "Active"}]}]}
